# From ChEMBL document CHEMBL4270584, “In silico fragment-based drug design with SEED” (Eur J Med Chem, 2018)
# Tests used:
# [1] = molecular target: T1, 3-dehydroquinate dehydratase (Helicobacter pylori (strain ATCC 700392 / 26695) (Campylobacterpylori), UniProt Q48255); test: Inhibition of Helicobacter pylori DHQ2
# T1 sequence (Q48255 whole entry): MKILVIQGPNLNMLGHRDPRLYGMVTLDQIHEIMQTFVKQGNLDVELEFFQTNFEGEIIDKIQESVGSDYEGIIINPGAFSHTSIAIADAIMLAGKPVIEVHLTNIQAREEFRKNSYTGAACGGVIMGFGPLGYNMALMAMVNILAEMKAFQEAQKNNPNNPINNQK
# [2] = molecular target: T2, Bromodomain-containing protein 4 (Homo sapiens, UniProt O60885); test: Binding affinity to human BRD4 bromodomain-1
# [3] = molecular target: CREB-binding protein (Homo sapiens, UniProt Q92793); test: Inhibition of H4K5/8/12/16-Ac-biotin binding to human CREBBP by Alpha screen assay
# [4] = molecular target: T2, Bromodomain-containing protein 4; test: Inhibition of H4K5/8/12/16-Ac-biotin binding to human BRD4 bromodomain-1 by Alpha screen assay
# [5] = molecular target: Beta-secretase 1 (Homo sapiens, UniProt P56817); test: Inhibition of human BACE-1 after 30 mins by FRET assay
# [6] = molecular target: T3, ATPase family AAA domain-containing protein 2 (Homo sapiens, UniProt Q6PL18); test: Inhibition of H4K5/8/12/16-Ac-biotin binding to human ATAD2 by Alpha screen assay
# T3 sequence (Q6PL18 whole entry): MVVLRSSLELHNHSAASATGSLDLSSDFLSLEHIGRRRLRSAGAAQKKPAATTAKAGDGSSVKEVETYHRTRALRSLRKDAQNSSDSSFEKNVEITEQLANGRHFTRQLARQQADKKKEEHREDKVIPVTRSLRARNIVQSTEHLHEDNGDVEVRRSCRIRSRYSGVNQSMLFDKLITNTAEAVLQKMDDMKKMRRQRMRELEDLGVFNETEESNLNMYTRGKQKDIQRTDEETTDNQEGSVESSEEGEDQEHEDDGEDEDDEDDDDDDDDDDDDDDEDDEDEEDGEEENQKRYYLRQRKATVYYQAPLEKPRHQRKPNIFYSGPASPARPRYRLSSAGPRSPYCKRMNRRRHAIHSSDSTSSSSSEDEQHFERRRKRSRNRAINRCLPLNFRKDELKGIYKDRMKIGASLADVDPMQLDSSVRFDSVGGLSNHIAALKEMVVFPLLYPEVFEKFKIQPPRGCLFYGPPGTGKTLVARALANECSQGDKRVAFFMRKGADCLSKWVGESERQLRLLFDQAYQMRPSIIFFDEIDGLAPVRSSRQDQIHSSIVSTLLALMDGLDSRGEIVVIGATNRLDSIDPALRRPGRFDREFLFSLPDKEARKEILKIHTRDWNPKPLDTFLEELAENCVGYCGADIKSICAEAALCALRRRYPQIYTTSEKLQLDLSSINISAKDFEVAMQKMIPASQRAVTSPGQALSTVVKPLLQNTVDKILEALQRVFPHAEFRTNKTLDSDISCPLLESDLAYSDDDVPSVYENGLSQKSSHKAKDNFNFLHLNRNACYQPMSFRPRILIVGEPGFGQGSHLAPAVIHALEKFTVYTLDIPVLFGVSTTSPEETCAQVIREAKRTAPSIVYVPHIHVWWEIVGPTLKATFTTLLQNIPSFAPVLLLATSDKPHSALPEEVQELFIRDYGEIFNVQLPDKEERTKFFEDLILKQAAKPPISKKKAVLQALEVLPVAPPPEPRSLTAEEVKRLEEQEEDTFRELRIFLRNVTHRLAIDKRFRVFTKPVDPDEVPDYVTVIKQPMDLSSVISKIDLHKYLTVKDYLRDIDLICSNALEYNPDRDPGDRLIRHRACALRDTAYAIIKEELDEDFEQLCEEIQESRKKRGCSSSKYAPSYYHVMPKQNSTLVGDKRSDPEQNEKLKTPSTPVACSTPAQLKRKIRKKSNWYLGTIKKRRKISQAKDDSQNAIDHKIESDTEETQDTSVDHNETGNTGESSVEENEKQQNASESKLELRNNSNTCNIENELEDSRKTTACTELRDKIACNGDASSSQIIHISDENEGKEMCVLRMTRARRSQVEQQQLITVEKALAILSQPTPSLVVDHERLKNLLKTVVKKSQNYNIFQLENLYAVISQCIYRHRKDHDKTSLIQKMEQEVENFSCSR
# Chain of CREB-binding protein (Q92793 whole entry): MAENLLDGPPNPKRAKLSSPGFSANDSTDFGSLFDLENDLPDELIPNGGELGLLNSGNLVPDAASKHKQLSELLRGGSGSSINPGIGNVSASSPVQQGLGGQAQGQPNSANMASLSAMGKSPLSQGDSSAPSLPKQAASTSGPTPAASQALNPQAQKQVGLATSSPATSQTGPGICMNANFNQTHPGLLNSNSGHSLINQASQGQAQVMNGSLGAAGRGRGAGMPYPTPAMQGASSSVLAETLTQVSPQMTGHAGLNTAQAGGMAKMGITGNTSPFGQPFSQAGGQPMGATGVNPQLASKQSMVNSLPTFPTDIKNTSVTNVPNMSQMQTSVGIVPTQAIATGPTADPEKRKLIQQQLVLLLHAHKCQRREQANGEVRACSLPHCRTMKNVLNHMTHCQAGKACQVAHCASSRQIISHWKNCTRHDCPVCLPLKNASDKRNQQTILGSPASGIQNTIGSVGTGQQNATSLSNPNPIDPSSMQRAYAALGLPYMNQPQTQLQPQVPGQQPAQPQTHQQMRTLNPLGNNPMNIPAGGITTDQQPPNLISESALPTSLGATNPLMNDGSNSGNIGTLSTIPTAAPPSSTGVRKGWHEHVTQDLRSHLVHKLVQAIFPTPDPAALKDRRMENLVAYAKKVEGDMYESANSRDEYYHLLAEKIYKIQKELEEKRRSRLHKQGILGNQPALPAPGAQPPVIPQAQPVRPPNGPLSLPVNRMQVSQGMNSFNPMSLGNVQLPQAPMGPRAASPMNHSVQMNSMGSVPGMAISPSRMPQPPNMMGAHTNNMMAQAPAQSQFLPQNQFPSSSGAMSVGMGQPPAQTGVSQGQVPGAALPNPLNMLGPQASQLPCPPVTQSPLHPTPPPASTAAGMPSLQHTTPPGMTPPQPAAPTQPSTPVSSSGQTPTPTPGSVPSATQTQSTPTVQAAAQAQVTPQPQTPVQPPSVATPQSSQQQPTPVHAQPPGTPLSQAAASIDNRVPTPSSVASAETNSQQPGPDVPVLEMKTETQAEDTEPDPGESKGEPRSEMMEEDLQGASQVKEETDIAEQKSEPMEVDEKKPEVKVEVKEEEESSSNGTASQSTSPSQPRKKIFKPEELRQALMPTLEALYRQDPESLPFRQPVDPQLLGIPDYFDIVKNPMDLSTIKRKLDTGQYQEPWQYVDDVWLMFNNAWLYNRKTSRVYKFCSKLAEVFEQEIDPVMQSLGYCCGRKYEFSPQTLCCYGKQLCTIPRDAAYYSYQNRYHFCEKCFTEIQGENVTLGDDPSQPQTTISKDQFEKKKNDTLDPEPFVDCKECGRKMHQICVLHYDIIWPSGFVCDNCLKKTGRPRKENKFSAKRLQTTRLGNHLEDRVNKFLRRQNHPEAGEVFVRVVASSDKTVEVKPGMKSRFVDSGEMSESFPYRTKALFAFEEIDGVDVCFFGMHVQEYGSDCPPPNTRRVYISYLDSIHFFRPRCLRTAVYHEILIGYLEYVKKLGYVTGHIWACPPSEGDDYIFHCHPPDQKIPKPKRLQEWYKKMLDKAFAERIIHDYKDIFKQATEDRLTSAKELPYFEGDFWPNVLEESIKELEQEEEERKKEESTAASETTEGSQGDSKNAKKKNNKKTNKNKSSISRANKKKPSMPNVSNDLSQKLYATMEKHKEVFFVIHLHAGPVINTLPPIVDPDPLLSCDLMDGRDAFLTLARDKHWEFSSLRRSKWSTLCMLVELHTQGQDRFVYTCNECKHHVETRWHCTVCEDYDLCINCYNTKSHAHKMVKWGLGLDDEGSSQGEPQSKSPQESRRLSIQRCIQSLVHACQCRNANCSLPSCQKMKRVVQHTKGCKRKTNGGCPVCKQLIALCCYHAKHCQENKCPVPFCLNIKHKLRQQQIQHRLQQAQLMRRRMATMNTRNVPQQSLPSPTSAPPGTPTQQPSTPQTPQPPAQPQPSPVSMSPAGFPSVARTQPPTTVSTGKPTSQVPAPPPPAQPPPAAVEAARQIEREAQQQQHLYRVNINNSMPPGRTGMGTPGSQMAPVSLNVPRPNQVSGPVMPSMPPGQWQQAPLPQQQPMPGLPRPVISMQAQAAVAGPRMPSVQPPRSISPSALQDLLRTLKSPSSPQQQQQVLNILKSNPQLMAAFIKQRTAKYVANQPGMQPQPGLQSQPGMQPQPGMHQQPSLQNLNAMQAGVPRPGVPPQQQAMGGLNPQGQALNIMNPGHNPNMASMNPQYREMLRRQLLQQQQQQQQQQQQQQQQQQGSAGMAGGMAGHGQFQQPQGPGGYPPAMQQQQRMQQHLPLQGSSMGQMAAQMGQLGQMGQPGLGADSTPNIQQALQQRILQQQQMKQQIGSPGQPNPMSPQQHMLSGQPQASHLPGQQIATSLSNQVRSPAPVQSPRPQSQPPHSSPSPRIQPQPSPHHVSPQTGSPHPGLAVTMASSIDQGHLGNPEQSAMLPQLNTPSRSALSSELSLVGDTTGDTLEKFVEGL
# Chain of Beta-secretase 1 (P56817 whole entry, the tested form may be a part): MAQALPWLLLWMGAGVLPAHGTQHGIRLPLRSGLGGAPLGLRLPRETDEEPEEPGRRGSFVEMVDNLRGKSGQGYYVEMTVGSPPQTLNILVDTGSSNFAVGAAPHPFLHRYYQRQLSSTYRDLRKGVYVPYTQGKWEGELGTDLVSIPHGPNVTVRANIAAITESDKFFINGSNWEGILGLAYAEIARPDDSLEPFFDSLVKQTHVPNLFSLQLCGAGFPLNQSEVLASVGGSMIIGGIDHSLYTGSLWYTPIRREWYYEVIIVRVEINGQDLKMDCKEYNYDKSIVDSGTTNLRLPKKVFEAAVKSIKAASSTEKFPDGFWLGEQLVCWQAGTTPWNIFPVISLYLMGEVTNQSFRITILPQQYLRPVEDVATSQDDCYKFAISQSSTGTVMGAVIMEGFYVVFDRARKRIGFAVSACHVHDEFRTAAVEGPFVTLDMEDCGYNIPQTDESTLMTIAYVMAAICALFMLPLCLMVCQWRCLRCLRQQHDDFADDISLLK
compound,measurement,setting,value
CC(C)[C@H](NC(=O)CCCn1c(=O)[nH]c2ccccc2c1=O)C(=O)O,Ki,[1],19 µM
CC(=O)N(C)c1cccc(-c2ccc3nnc(C)n3n2)c1,Kd,[2],7 µM
O=C1CNCC(C(=O)NCCn2nc(-c3ccccc3)ccc2=O)N1 (stereo unspecified),IC50,[3],55 µM
COc1cc(/C=C2\SC(=O)N=C2N)ccc1O,IC50,[4],22 µM
O=C(O)c1cc(-c2ccc(/C=N/Nc3nc(Nc4ccc(F)cc4)nc(N4CCOCC4)n3)o2)ccc1Cl,IC50,[5],7 µM
Cc1ccc(OCCCC(=O)Nc2nc(C)c(C)s2)cc1,IC50,[6],23 µM
